Experimental findings from patent publication US9341616B2, “Sweet taste receptor chimeric proteins and use thereof” (AJINOMOTO CO., INC., priority 2014, dated 2016) are described below.

Each structure is given as a SMILES string. Residues, ends and D or L forms follow the SMILES beside them.

This assay concerns the target h-mT1R2-481/T1R3mosaicC (UniProt Q8TE23+Q925D8, A537S/A558R/A564V/A568V/A570T/A588V/A645S/A649T/A658V/A698V/A702T/A782V/A793V/A807V/C582S/C678S/D172E/D176A/D217E/E221Q/E530V/E534N/E542M/E548N/E725V/F525Y/F541I/F612A/F622V/F665L/F695L/G696N/G701T/H484Y/H528R/H728R/I481V/I486P/I490V/I510L/I518V/I595M/I617V/I643V/I645L/I692L/I695G/I706V/I740A/I803L/K504M/K555R/K565R/K626T/K714N/K818R/K827G/L521P/L560F/L571I/L578I/L610P/L631F/L636F/L639V/L684P/L688V/L702I/L734M/L735F/L800F/L823M/L825Q/M492I/M616G/M644L/M682V/M690V/M744T/M748V/N203E/N231A/N540G/N541S/N547G/N675D/N721H/P545F/P561R/P564S/P638T/P824S/Q195T/Q536L/Q546K/Q550E/Q555R/Q611L/Q676H/Q757R/Q795R/Q831P/R173L/R498S/R632Q/R667S/S168G/S205G/S228A/S501P/S547N/S550A/S576L/S595F/S610P/S628F/S635P/S637R/S663R/S670G/S679G/S681F/S703N/S717H/S727G/S784D/S804G/T199E/T529S/T542A/T549I/T609V/T629S/T642S/T663I/T694M/T705I/T706G/T716I/T813A/V197A/V198A/V508I/V512P/V557A/V573A/V584A/V585L/V613L/V617M/V673M/V687A/V691A/V694A/V718L/V718M/V723A/V729T/V738A/V741L/V774I/V791M/V805L/V812A/V821L/W599R/W676R/W824R/Y533F/Y615F/Y671F/Y680C/Y769S/Y783H/Y794L). The note with it: Table 6; genes h-mT481/T1R3mC (h-mT1R2-481, T1R3mC); HEK293E cells.

Chain of h-mT1R2-481/T1R3mosaicC (Q8TE23 with tags, fused parts or gaps with the stated changes limits assumed): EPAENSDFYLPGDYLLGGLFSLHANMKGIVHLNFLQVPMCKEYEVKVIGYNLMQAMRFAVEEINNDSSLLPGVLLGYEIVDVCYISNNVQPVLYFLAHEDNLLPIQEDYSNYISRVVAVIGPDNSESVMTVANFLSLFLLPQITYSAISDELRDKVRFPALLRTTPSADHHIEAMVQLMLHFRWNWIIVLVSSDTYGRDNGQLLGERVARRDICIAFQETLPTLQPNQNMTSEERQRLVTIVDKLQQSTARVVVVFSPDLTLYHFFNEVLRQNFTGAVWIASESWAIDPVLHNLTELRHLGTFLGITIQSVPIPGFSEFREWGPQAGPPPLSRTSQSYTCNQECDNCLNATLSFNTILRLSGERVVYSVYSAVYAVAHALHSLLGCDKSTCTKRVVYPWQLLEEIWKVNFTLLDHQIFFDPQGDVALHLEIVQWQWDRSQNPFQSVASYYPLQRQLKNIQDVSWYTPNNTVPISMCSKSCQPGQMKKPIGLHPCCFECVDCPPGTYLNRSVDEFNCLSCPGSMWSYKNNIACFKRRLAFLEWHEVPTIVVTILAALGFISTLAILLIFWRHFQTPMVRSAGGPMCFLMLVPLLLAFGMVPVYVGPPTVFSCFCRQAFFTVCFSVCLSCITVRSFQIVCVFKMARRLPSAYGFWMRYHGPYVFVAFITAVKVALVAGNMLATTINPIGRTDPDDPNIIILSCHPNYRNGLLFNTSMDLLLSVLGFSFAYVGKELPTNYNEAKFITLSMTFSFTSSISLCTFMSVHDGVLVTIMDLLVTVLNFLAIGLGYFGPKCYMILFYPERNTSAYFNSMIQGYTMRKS
Chain of h-mT1R2-481/T1R3mosaicC (Q925D8 with tags, fused parts or gaps with the stated changes limits assumed): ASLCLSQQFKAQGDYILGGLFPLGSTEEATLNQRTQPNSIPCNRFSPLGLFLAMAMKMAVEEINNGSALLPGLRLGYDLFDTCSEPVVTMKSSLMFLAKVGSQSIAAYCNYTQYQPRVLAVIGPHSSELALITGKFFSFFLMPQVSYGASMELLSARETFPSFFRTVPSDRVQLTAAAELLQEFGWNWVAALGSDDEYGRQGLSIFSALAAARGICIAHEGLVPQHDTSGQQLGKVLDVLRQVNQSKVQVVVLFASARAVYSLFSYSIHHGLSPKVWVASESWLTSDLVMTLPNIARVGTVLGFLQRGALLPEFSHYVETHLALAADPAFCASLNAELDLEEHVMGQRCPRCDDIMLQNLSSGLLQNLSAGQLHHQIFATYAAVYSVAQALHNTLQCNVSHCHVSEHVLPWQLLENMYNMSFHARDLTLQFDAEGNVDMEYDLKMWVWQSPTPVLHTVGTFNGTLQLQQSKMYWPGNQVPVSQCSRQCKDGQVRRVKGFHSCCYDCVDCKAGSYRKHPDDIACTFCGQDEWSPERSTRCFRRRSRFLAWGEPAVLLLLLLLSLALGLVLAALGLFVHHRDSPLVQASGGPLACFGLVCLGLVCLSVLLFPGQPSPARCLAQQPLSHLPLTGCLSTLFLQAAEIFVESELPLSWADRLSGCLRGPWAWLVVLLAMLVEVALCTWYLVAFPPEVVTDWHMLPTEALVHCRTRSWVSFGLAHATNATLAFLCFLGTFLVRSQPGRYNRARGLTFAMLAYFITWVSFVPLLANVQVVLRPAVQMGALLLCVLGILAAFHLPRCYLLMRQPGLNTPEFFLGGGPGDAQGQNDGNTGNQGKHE

As to `CC1=CC(=O)NS(=O)(=O)O1` [Acesulfame K, acesulfame potassium], the S/N was determined as 3.2. The molecule `COC(=O)[C@H](Cc1ccccc1)NC(=O)[C@H](CC(=O)O)NCCCc1ccc(OC)c(O)c1` [Advantame, advantame] displayed a S/N of 9.9. In the case of `COC(=O)[C@H](Cc1ccccc1)NC(=O)[C@@H](N)CC(=O)O` [Aspartame, aspartame] (HELM PEPTIDE1{D.F.[CO[*:1]]}$$$$V2.0) it was 6.3. The value for `COc1ccc(CCC(=O)c2c(O)cc(O[C@@H]3O[C@H](CO)[C@@H](O)[C@H](O)[C@H]3O[C@@H]3O[C@@H](C)[C@H](O)[C@@H](O)[C@H]3O)cc2O)cc1O` [NHDC, neohesperidin dihydrochalcone] was 3.9.

Turning to `COC(=O)[C@H](Cc1ccccc1)NC(=O)[C@H](CC(=O)O)NCCC(C)(C)C` [Neotame, neotame], the S/N was determined as 8.4. Consider `C[C@H](NC(=Nc1ccc(C#N)cc1)NCC(=O)O)c1ccccc1` [SC-45647, [3-[(S)-1-phenylethyl]-2-(4-cyanophenyl)guanidino]acetic acid], for which the S/N was 6.1.

On to `O=C1NS(=O)(=O)c2ccccc21.[Na]` [Saccharin Na, sodium saccharin], for which the S/N turned out to be 4.5. The value for `OC[C@H]1O[C@H](O[C@]2(CCl)O[C@H](CCl)[C@@H](O)[C@@H]2O)[C@H](O)[C@@H](O)[C@H]1Cl` [Sucralose, sucralose] was 4.8; that for `OC[C@H]1O[C@@](CO)(O[C@H]2O[C@H](CO)[C@@H](O)[C@H](O)[C@H]2O)[C@@H](O)[C@@H]1O` [Sucrose, sucrose] was 3.4.
